Data published in US20200179428A1, “CYCLIC PHOSPHATE SUBSTITUTED NUCLEOSIDE DERIVATIVES AND METHODS OF USE THEREOF FOR THE TREATMENT OF VIRAL DISEASES” (priority 2016, published 2020).

Tests used:
replicon cells (1b-Con1) = assay: Replicon activity assay (replicon RNA level by real-time RT-PCR, Taqman); assay type: cell-based; conditions: HCV replicon genotype 1b; read-out: EC50 (1b) Range
Outline: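 HCV 1b-Con1 replicon cells treated 3 days with 10-point twofold serial dilutions in triplicate (0.5% DMSO, 10% FBS); replicon RNA quantified by Taqman real-time RT-PCR normalised to GAPDH, EC50 derived. Cytotoxicity by MTS read-out at day 3 on identically treated cells.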

replicon cells = assay: Cytotoxicity MTS assay (CellTiter 96 Aqueous One Solution) in replicon cells; assay type: cell-based; conditions: EDU; read-out: CC50 (EDU) Range

Row | SMILES | EC50 (replicon cells (1b-Con1)) [µM] | CC50 (replicon cells) [µM]
1 | CC(CCOP1(=O)OC[C@H]2O[C@@H](n3ccc(=O)[nH]c3=O)[C@](C)(N)[C@@H]2O1)C(=O)OC1CCCC1 (single isomer, unassigned) [Compound 14B] | > 10 | > 50
2 | CCOC(=O)C(C)CCOP1(=O)OC[C@H]2O[C@@H](n3ccc(=O)[nH]c3=O)[C@](C)(N)[C@@H]2O1 (single isomer, unassigned) [Compound 5B] | > 10 | > 50
3 | C#C[C@@]1(O)[C@@H]2OP(=O)(OCCC(C)C(=O)OC3CCCC3)OC[C@H]2O[C@H]1n1ccc(=O)[nH]c1=O (single isomer, unassigned) [Compound 8B1] | ≤ 0.25 | > 50
4 | CC(CCOP1(=O)OC[C@H]2O[C@@H](n3ccc(=O)[nH]c3=O)[C@](C)(N)[C@@H]2O1)C(=O)OC1CCCC1 (single isomer, unassigned) [Compound 14B1] | 1 to 10 | > 50
5 | CC(CCOP1(=O)OC[C@H]2O[C@@H](n3ccc(=O)[nH]c3=O)[C@](C)(N)[C@@H]2O1)C(=O)OC1CCCC1 (single isomer, unassigned) [Compound 14B2] | 1 to 10 | > 50
6 | CC(C)OC(=O)C(C)CCOP1(=O)OC[C@H]2O[C@@H](n3ccc(=O)[nH]c3=O)[C@](C)(N)[C@@H]2O1 (single isomer, unassigned) [Compound 10B1] | > 10 | > 50
